Like-named read-outs stand apart in the source and are kept apart here.
Columns and labels:
[1] = system: mites, eelworms and other agricultural and forestry noxious insects and household noxious insects; conditions: known compounds, background; cited from earlier work
[2] = system: warm-blooded animals; conditions: known compounds, background; cited from earlier work
[3] = system: tobacco cutworm (Spodoptera litura); test: Test Example 1: mortality of third-instar larvae of tobacco cutworm on cabbage, 3 days; type: in vivo; conditions: 72 h
Experimental: Ten third-instar larvae of tobacco cutworm (Spodoptera litura) were placed on a cabbage (one-month-old seedling) planted in a pot, and a 50% emulsion of the compound to be tested was diluted to a specified concentration and applied to the leaves of the plant to fully wet them. The test compound of each specified concentration was tested on two pots.

[4] = system: green rice leafhopper (Nephotettix cincticeps); test: Test Example 2: mortality of female adults of green rice leafhopper on paddy rice, 3 days; type: in vivo; conditions: 72 h
Experimental: An emulsion of specified concentration was prepared from a 50% wettable powder of the compound to be tested and applied to the leaves of paddy rice (one-month-old seedlings) planted in a pot to fully wet the leaves. After the emulsion had been dried, the pot was covered with a net cage, into which 10 female adults of green rice leafhopper (Nephotettix cincticeps) were released. The compound of each specified concentration was tested on two pots.

[5] = Test Example 4: acute toxicity by oral administration in male mice (Litchfield-Wilcoxon); set-up: unit not given here; conditions: mouse, in vivo, mortality on the seventh day
Experimental: Compounds of this invention were tested on male mice for acute toxicity by oral administration.

[6] = 125 ppm active ingredient, 3 days, read-out: Mortality
[7] = 250 ppm active ingredient, 3 days, read-out: Mortality
[8] = 500 ppm active ingredient, 3 days, read-out: Mortality
[9] = 1000 ppm active ingredient, 3 days, read-out: Mortality
[10] = 200 ppm active ingredient, 3 days, read-out: Mortality
[11] = 400 ppm active ingredient, 3 days, read-out: Mortality
[12] = 800 ppm active ingredient, 3 days, read-out: Mortality

| Structure (SMILES) | insecticidal activity (in words) [1] | toxicity to warm-blooded animals (in words) [2] | mortality at 125 ppm [3, 6] | mortality at 250 ppm [3, 7] | mortality at 500 ppm [3, 8] | mortality at 1000 ppm [3, 9] | mortality at 200 ppm [4, 10] | mortality at 400 ppm [4, 11] | mortality at 800 ppm [4, 12] | mortality at 125 ppm [3] | mortality at 250 ppm [3] | mortality at 500 ppm [3] | mortality at 1000 ppm [3] | mortality at 200 ppm [4] | mortality at 400 ppm [4] | mortality at 800 ppm [4] | LD50 at 168 h [5] |
| --- | --- | --- | --- | --- | --- | --- | --- | --- | --- | --- | --- | --- | --- | --- | --- | --- | --- |
| CNC(=O)Oc1cccc2c1OC(C)(C)C2 [Control 1, 2,3dihydro-2,2-dimethylbenzofuran-7-yl-N--methylcarbamate] | high insecticidal activity | high toxicity to warm-blooded animals | – | – | – | – | – | – | – | – | – | – | – | – | – | – | – |
| COC(=O)CCN(CCOC(C)C)SN(C)C(=O)ON=C(C)SC [Example 21] | – | – | 100% | 100% | 100% | 100% | 85% | 100% | 100% | – | – | – | – | – | – | – | – |
| CCOCCN(CCC(=O)OC)SN(C)C(=O)Oc1cccc2c1OC(C)(C)C2 [Example 8] | – | – | – | – | – | – | – | – | – | 40% | 60% | 80% | 90% | 75% | 90% | 100% | – |
| COC(=O)CCN(CCCOc1ccccc1)SN(C)C(=O)ON=C(C)SC [Example 20] | – | – | 90% | 95% | 100% | 100% | 80% | 90% | 100% | – | – | – | – | – | – | – | – |
| COCCN(CCC(=O)OC)SN(C)C(=O)ON=C(C)SC [Example 3, S-methyl N-[{N-methyl-N-(N-methoxyethyl-N-methoxycarbonylethylaminosulfenyl)carbamoyl}oxy]-thioacetimidate] | – | – | 55% | 70% | 85% | 90% | 65% | 90% | 100% | – | – | – | – | – | – | – | – |
| CCCCOC(=O)CCN(CCOC)SN(C)C(=O)Oc1cccc2c1OC(C)(C)C2 [Example 12] | – | – | – | – | – | – | – | – | – | 40% | 55% | 75% | 85% | 70% | 85% | 100% | – |
| COCCN(CCC#N)SN(C)C(=O)Oc1cccc2c1OC(C)(C)C2 [Example 2, 2,3-dihydro-2,2-dimethylbenzofuran-7-yl N-[N-(2-methoxyethyl)-N-cyanoethylaminosulfenyl]N-methyl-carbamate] | – | – | – | – | – | – | – | – | – | 40% | 55% | 70% | 85% | 65% | 85% | 100% | 98000 |
| COCCN(CC#N)SN(C)C(=O)Oc1cccc2c1OC(C)(C)C2 [Example 5] | – | – | – | – | – | – | – | – | – | 50% | 70% | 80% | 90% | 70% | 90% | 100% | 68000 |
| COC(=O)CCN(CCCCOc1ccccc1)SN(C)C(=O)ON=C(C)SC [Example 25] | – | – | 80% | 90% | 100% | 100% | 85% | 90% | 100% | – | – | – | – | – | – | – | – |
| CCCCOC(=O)CCN(CCOC)SN(C)C(=O)ON=C(C)SC [Example 24] | – | – | 80% | 95% | 100% | 100% | 85% | 95% | 100% | – | – | – | – | – | – | – | – |
| CNC(=O)ON=C(C)SC [Control*] | – | – | 85% | 90% | – | – | – | – | – | – | – | – | – | – | – | – | – |
| COC(=O)CCN(CCCCOc1ccccc1)SN(C)C(=O)Oc1cccc2c1OC(C)(C)C2 [Example 14] | – | – | – | – | – | – | – | – | – | 35% | 50% | 70% | 80% | 65% | 85% | 100% | – |
| COC(=O)CCN(CCOC1CCCCC1)SN(C)C(=O)Oc1cccc2c1OC(C)(C)C2 [Example 10] | – | – | – | – | – | – | – | – | – | 35% | 50% | 70% | 85% | 65% | 85% | 100% | – |
| CNC(=O)ON=C(C)SC [Control*, S--methyl N--[(methylcarbamoyl)oxy]thioacetimidate] | – | high toxicity to warm-blooded animals | – | – | – | – | – | – | – | – | – | – | – | – | – | – | – |
| CC(C)OCCCN(CCC#N)SN(C)C(=O)Oc1cccc2c1OC(C)(C)C2 [Example 11] | – | – | – | – | – | – | – | – | – | 35% | 50% | 70% | 80% | 70% | 90% | 100% | – |
| COCCN(CC(=O)OC)SN(C)C(=O)Oc1cccc2c1OC(C)(C)C2 [Example 4] | – | – | – | – | – | – | – | – | – | 45% | 65% | 80% | 90% | 75% | 95% | 100% | 90000 |
| COCCCN(CCC(=O)OC)SN(C)C(=O)ON=C(C)SC [Example 16] | – | – | 100% | 100% | 100% | 100% | 90% | 100% | 100% | – | – | – | – | – | – | – | – |
| COC(=O)CCN(CCOC(C)C)SN(C)C(=O)Oc1cccc2c1OC(C)(C)C2 [Example 9] | – | – | – | – | – | – | – | – | – | 40% | 60% | 80% | 90% | 75% | 90% | 100% | – |
| COCCCN(CCC(=O)OC)SN(C)C(=O)Oc1cccc2c1OC(C)(C)C2 [Example 1, 2,3-dihydro-2,2-dimethylbenzofuran-7-yl N-[N-(3-methoxypropyl)-N-methoxycarbonylethylaminosulfenyl]N-methyl carbamate] | – | – | – | – | – | – | – | – | – | 40% | 65% | 80% | 90% | 70% | 90% | 100% | – |
| COCCN(CCC#N)SN(C)C(=O)ON=C(C)SC [Example 17] | – | – | 85% | 95% | 100% | 100% | 80% | 95% | 100% | – | – | – | – | – | – | – | – |
| COC(=O)CCN(CCOCc1ccccc1)SN(C)C(=O)Oc1cccc2c1OC(C)(C)C2 [Example 13] | – | – | – | – | – | – | – | – | – | 40% | 55% | 70% | 85% | 65% | 85% | 100% | – |
| COCCN(CC#N)SN(C)C(=O)ON=C(C)SC [Example 18] | – | – | 100% | 100% | 100% | 100% | 80% | 95% | 100% | – | – | – | – | – | – | – | – |
| COC(=O)CCN(CCCCCOc1ccccc1)SN(C)C(=O)Oc1cccc2c1OC(C)(C)C2 [Example 15] | – | – | – | – | – | – | – | – | – | 40% | 50% | 70% | 80% | 65% | 80% | 100% | – |
| CSC(C)=NOC(=O)N(C)SN(CCC#N)CCCOC(C)C [Example 23] | – | – | 85% | 95% | 100% | 100% | 80% | 95% | 100% | – | – | – | – | – | – | – | – |
| COC(=O)CCN(CCCOc1ccccc1)SN(C)C(=O)Oc1cccc2c1OC(C)(C)C2 [Example 7] | – | – | – | – | – | – | – | – | – | 40% | 60% | 75% | 85% | 60% | 80% | 100% | – |
| CCOC(=O)CN(CCCOC)SN(C)C(=O)Oc1cccc2c1OC(C)(C)C2 [Example 6] | – | – | – | – | – | – | – | – | – | 55% | 70% | 80% | 90% | 70% | 95% | 100% | – |
| CCOC(=O)CN(CCOC)SN(C)C(=O)ON=C(C)SC [Example 19] | – | – | 90% | 100% | 100% | 100% | 90% | 100% | 100% | – | – | – | – | – | – | – | – |
| COC(=O)CCN(CCOC1CCCCC1)SN(C)C(=O)ON=C(C)SC [Example 22] | – | – | 90% | 100% | 100% | 100% | 80% | 95% | 100% | – | – | – | – | – | – | – | – |

From US4540708A, “Sulfenyl carbamate derivatives and insecticidal compositions containing the same” (priority 1982, dated 1985)
